How the values were obtained:
[1] = Antiinflammatory activity in PMA-induced human neutrophils assessed as inhibition of superoxide production; assay type: functional, cell-based; conditions: Neutrophil
[2] = Toxicity against human HL60 cells assessed as inhibition of cell proliferation; assay type: cell-based; conditions: HL-60 cells

Work on `CC1=CC[C@H]2C(C)(C)CCC[C@]2(C)[C@H]1CC1=C(O)C(=O)C=CC1=O` yielded an IC50 [1] of 11000 nM and an IC50 [2] of 340 nM.

Molecule `CC(=O)Oc1ccc(O)c(C[C@H]2C(C)=CC[C@H]3C(C)(C)CCC[C@]23C)c1O` has an IC50 [1] of 3000 nM and an IC50 [2] of 370 nM.
